The test system of data set [1] is PD-1/PD-L1. Put plainly: PD-1/PD-L1 expression rate in tumor tissues of Opdivo-resistant Lewis lung cancer mice. The note with it: tumor tissues of drug-resistant (Opdivo) Lewis lung cancer mice. The data set is classed as in vivo. The source says:
(§1) The positive expression rate of PD-1/PD-L1 in tumor tissues was detected by immunohistochemical SP method.

Data set [2] has as its system gemcitabine-resistant Lewis lung cancer. Description: Tumor weight and inhibition rate, transplanted gemcitabine-resistant Lewis lung cancer. The data set is classed as in vivo. The note with it: gemcitabine-resistant Lewis lung cancer mice; test drug 30 mg/kg i.p. once a day 5 days, then gemcitabine 300 mg/kg every other day; positive drug gemcitabine 300 mg/kg. As to the method:
Lewis lung cancer cell lines were induced by the increased gradient concentration of gemcitabine, and established by clone screening and cultured without drug before the experiment.
After the drug was removed from the drug-resistant cell lines, the cell concentration was adjusted to 1×10^7/ml with the culture medium. 1×10^7/ml of cells were subcutaneously injected into the right armpit of mice, 0.1 ml per mouse.
After the average diameter of tumor reached […], the mice were randomly divided into test drug group 1, test drug group 2, test drug group 3, test drug group 4, test drug group 5, test drug group 6, positive drug group, and negative group, respectively.
Test drug group: the test drug group was first intraperitoneally injected, once a day, 30 mg/kg/time, for 5 consecutive days; administration was stopped, and the positive drug was given by intraperitoneal injection on the next day; wherein the positive drug dacarbazine was administrated once every other day, 60 mg/kg/time; wherein the positive drug gemcitabine was given once every other day, 300 mg/kg/time.
Positive drug group: positive drug dacarbazine was given once every other day, 60 mg/kg/time; positive drug gemcitabine was given once every other day, 300 mg/kg/time.
Negative group: normal saline was intraperitoneally injected, once a day, for 15 consecutive days.
(§2) After completion of administration, the experiment was stopped, and the mice were killed by cervical dislocation and weighed. The tumor was stripped and weighed, to calculate the tumor inhibition rate.

Data set [3] concerns CD4+T and CD8+T lymphocytes. Put plainly: Number of CD4+T and CD8+T cells (immunofluorescence), drug-resistant B16 melanoma transplanted tumor. Type of data set: in vivo. The following applies: transplanted tumor of drug-resistant B16 melanoma in mice, average of 6 high power fields. As to the method: (§3) The number of CD4+T and CD8+T lymphocytes was analyzed by immunofluorescence staining, and the average number of CD4+T and CD8+T cells infiltrated in 6 high power fields was counted.

For data set [4], the system named is PD-1/PD-L1. Put plainly: PD-1/PD-L1 expression rate in transplanted tumor tissues, multidrug resistance model. The note with it: transplanted tumor tissues of B16 melanoma mice with multidrug resistance (as titled), Example 5 regimen. Type of data set: in vivo.
Source text: as §1

For data set [5], the system named is PD-1/PD-L1. Put plainly: PD-1/PD-L1 expression rate (immunohistochemical SP method), drug-resistant B16 melanoma tumor tissue. Type of data set: in vivo. The following applies: transplanted tumor tissues of drug-resistant B16 melanoma in mice, Example 3 regimen.
Source text: as §1

Data set [6] concerns Opdivo-resistant B16 melanoma. Description: Antitumor effect (tumor volume, weight, inhibition rate) in Opdivo-resistant B16 melanoma mice. The data set is classed as in vivo. The following applies: for Tumor volume (cm^3): 30 mg/kg i.p. once a day, + Opdivo groups: test drug 5 days, then Opdivo 30 mg/kg every other day; for Tumor inhition rate (%) / Tumor weight: 30 mg/kg i.p., + Opdivo groups 30 + 30 mg/kg. As to the method: The concentration of cell lines was adjusted to 1×10^7/ml with the culture medium. 1×10^7/ml of cells were subcutaneously injected into the right armpit of mice, 0.1 ml per mouse.
The model mice were randomly divided into groups, eight for one group, and included test drug group 1, test drug group 2, test drug group 3, test drug group 4, positive drug Opdivo group, single drug chlorogenic acid group, test drug 1+Opdivo group, test drug 2+Opdivo group, test drug 3+Opdivo group, test drug 4+Opdivo group, and negative group, respectively.
Test drug group: from the second day after stopping administration to the model, the group received drug by intraperitoneal injection, once a day, 30 mg/kg.
Single drug group: from the second day after stopping administration to the model, the group received drug by intraperitoneal injection, once a day, 30 mg/kg.
Test drug+Opdivo group: from the second day after stopping administration to the model, the group received the test drug by intraperitoneal injection, once a day, and the test drug was stopped after administrating for 5 consecutive days; on the next day, Opdivo was intraperitoneally injected, once every other day, with the dosage of 30 mg/kg.
Positive drug group: once every other day, 30 mg/kg.
Negative group: normal saline was intraperitoneally injected, once a day, the same amount of saline.
Before each administration, the tumor volume was measured, and the experiment was stopped when the average tumor volume of negative group was greater than 1.5 cm^3.
as §2

Data set [7] relates to CD4+T and CD8+T lymphocytes. Description: Number of CD4+T and CD8+T cells in Opdivo-resistant Lewis lung cancer mice. The data set is classed as in vivo. The note with it: drug-resistant (Opdivo) Lewis lung cancer mice, average of 6 high power fields. As to the method:
as §3

For data set [8], the system named is CD4+T and CD8+T lymphocytes. Put plainly: Number of CD4+T and CD8+T cells in Opdivo-resistant B16 melanoma mice. The data set is classed as in vivo. The note with it: drug-resistant (Opdivo) B16 melanoma mice, average of 6 high power fields. As to the method: as §3
Data set [9] concerns drug-resistant A549 lung cancer cell lines. Put plainly: MTT: non-cytotoxic concentration of test drugs, drug-resistant A549. The note with it: 48 h. The data set is classed as cell-based, human. As to the method:
The culture and treatment methods of cells and drug-resistant cells were the same as above. For the experiment, there were eight groups: blank group, control group and test-drug groups. […] The plates were placed in an incubator and incubated for 48 h, then 5 mg/ml MTT (20 μl) was added to each well, and the plate was further incubated for 4 h.

For data set [10], the system named is PD-1/PD-L1. Description: PD-1/PD-L1 expression rate (immunohistochemical SP method), drug-resistant Lewis lung cancer tumor tissue. The note with it: transplanted tumor tissues of drug-resistant Lewis lung cancer in mice, Example 3 regimen. The data set is classed as in vivo.
Source text: as §1

SMILES strings stand for the structures.

In the case of `O=C(/C=C/c1ccc(O)c(O)c1)O[C@@H]1C[C@](O)(C(=O)O)C[C@@H](O)[C@H]1O` [Chlorogenic acid, chlorogenic acid], the “Expression rate of PD-1/PD-L1, Positive PD-L1” value came out at 70.36% in [1], 72.26% in data set [4], 72.26% in data set [5] and 81.83% in data set [10]. The “Tumor inhibitory rate (%)” value in data set [2] amounted to 10.48%. The “Tumor weight (g)” value in data set [2] was 2.05 ± 0.79 ^ g. Also, the “CD4 + T cells (number)” value in data set [3] was determined as 69.43 ± 4.72; in [7], 66.52 ± 4.63; in data set [8], 74.63 ± 6.35. Besides, the “CD8 + T cells (number)” value in [3] was determined as 88.62 ± 5.38; in data set [7], 119.38 ± 6.55; in data set [8], 89.42 ± 2.52. In addition, the “continuous treatment effect / effect on tumor volume control (in words)” value in data set [6] was “not obvious”. Further, in data set [6], the “Tumor volume (cm^3)” value is reported as 1.788 ± 0.539 cm^3. In addition, in data set [6], the “Tumor inhition rate (%)” value amounted to 3.18%. For the same compound, in data set [6], the “Tumor weight” value is listed as 2.74 ± 0.59 g. Besides, the “Non-cytotoxic concentration (all inhibition rates <10%)” value in [9] was 1256 µg/mL.

With `O=C(/C=C/c1ccc(O)cc1)O[C@@H]1C[C@](O)(C(=O)O)C[C@@H](O)[C@H]1O` [Coumaroylquinic acid, coumaroylquinic acid], the “Expression rate of PD-1/PD-L1, Positive PD-L1” value in [1] is on record as 71.89%; in [4], 73.39%; in data set [5] it was 73.39%; in [10], 79.23%. The “Tumor inhibitory rate (%)” value in data set [2] is 5.68%. The “Tumor weight (g)” value in data set [2] was 2.16 ± 0.41 ^ g. The “CD4 + T cells (number)” value in [3] came out at 62.83 ± 7.51; in data set [7], 65.12 ± 5.17; in [8], 75.09 ± 5.23. The “CD8 + T cells (number)” value stood at 91.53 ± 3.54 in data set [3], 113.64 ± 8.23 in data set [7] and 88.26 ± 5.36 in data set [8]. The “Tumor volume (cm^3)” value in data set [6] came to 1.762 ± 0.947 cm^3. Besides, in data set [6], the “Tumor inhition rate (%)” value is 4.24%. Besides, the “Tumor weight” value in [6] is 2.71 ± 0.46 g. For the same compound, in data set [9], the “Non-cytotoxic concentration (all inhibition rates <10%)” value worked out at 1142 µg/mL.

(Values after patent publication US20210085630A1, “PHARMACEUTICAL COMPOSITION AND USE THEREOF IN PREPARING DRUG FOR TREATING TUMOR MULTI-DRUG RESISTANCE” (SICHUAN JIUZHANG BIOLOGICAL SCIENCE AND TECHNOLOGY CO., LTD., priority 2018, published 2021).)
